Test results published in paper PMC13197777, “Distinct 2-phenylimidazo[1,2-a]pyridine derivatives that inhibit breast cancer cell proliferation identified as AHR ligands” (iScience, 2026).

Tests used:
[1] = Parallel artificial membrane permeability assay (PAMPA); conditions: for Conc. acceptor well / Conc. donor well: PAMPA after incubation
Protocol: The plates were stored at – 20 °C until ready for use. Prior to use, the plate was prewarmed at room temperature for 30 min. Donor- and acceptor solutions were prepared as 12 mM phosphate buffered saline with a pH of 6.5 (donor) respectively 7.4 (acceptor). […] Then, 300 μL of each donor solution were filled into the donor (bottom) wells of the PAMPA plate. 200 μL of the acceptor medium were loaded into each well of the pre-coated receiver plate (top). […] The compound concentrations in the donor- and acceptor wells were then determined using a Jasco 2 HPLC system equipped with a ReproSil-Pur 120 ODS-3 column (5 μm, 50 × 2 mm) and UV detection. […] The injection volume was 40 μL and the flow rate 1 mL/min. […] For X15695, two calibration curves were prepared in the presence (donor well) and absence (acceptor well) of 10% ethanol. (Figure S6). The experiments were performed in triplicates.
Where cA(t) is the compound concentration in the acceptor well in μmol⋅l^−1, cD(t) is the compound concentration in the donor well in […], VA and VD is the volume of the acceptor respectively donor solution per well in mL, A is the membrane area in cm^2 and t the incubation time in seconds (Table S3).

AHR = target: T1, AHR (Homo sapiens, UniProt P35869); assay: AHR luciferase reporter assay in HAHLH cells; format: cell-based; conditions: 8 h, % of maximal luciferase activity with dioxin 10 nM, read-out: EC50 AHR transactivation
T1 construct: endogenous in cells; host or cells: HAHLH (HeLa with XRE-luciferase reporter)
T1 sequence (P35869 11-848): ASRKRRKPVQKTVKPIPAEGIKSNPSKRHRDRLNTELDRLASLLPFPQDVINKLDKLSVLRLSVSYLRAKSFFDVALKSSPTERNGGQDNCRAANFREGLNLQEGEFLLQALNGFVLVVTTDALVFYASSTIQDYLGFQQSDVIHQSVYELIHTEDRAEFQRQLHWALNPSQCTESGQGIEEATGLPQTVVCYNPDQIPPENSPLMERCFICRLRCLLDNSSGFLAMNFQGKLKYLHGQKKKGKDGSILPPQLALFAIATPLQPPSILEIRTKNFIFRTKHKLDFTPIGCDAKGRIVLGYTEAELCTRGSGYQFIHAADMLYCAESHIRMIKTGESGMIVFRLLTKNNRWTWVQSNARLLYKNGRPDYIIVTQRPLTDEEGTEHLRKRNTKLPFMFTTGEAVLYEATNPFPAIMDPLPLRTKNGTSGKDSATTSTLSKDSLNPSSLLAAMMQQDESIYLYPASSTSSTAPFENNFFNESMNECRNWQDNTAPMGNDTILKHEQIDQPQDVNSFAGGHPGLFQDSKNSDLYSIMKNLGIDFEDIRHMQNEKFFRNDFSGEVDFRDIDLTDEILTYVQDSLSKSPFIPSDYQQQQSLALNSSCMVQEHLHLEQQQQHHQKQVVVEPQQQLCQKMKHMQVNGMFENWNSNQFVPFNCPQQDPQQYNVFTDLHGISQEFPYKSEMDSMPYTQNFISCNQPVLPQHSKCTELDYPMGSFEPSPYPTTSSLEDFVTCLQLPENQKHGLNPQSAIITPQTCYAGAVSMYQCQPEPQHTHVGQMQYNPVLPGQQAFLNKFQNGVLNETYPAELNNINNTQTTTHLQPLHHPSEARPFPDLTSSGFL
Source text: To characterize the chemical induced AHR activity, we used the already established HAHLH reporter cell lines obtained by stably expression of HeLa cells with the dioxin-responsive gene XRE(TnGCGTG)3-tata-luciferase-Luc-hygromycin plasmid.[29] The reporter HELN hERα cell line was obtained by transfecting human HeLa cells with the ERE-responsive gene ERE-βGlobin-luciferase-Luc-neomycin and the pSG5-hERα-puromycin plasmids as previously described.[59] To determine the action of the chemical on AHR and hERα activity, cells were seeded at a density of 50,000 cells per well in 96-well white opaque tissue culture plates (Greiner CellStar) in 150 μL of Dulbecco’s Modified Eagle Medium: Nutrient Mixture F-12 (DMEM/F- 12) without phenol red and 1 g/L glucose and supplemented with 5% stripped fetal bovine serum, 100 units/mL of penicillin, 100 μg/mL of streptomycin (test medium). Twenty-four hours later, chemicals to be tested were added at 4x concentration in culture medium, and cells were incubated at 37 °C for 8 h (HAhLH cells) or 24 h (HELN hERα cells). At the end of the incubation period, culture medium was replaced with test medium containing 0.3 mM luciferin and luciferase activity was measured for 2 s in intact living cells using a MicroBeta Wallac luminometer (PerkinElmer). Tests were performed in quadruplicate at 4x concentration in the same medium in at least 4 independent experiments. Results were expressed as % of the maximal luciferase activity. […] Effective concentration (ECs) for a given compound, EC50 is defined as the concentration inducing 50% of its maximal effect. The EC50 values were calculated including the adjustment for the basal activity of the cell line.

[2] = test system: ER+ MCF-7, ZR75–1, and T47D breast cancer cells; design: method as in PMID 37520743; conditions: previously identified ref 17; cited from earlier work
ERα in MCF-7 cells = assay: Immunoblot of ERα in MCF-7 cells; format: cell-based, human; conditions: MCF-7, 48 h, increasing concentrations up to 1 μM
Protocol: To determine the relative expression of proteins by Western blotting, cells were first washed with ice-cold phosphate buffered saline (PBS). Subsequently, they were lysed in ice-cold NP40 lysis buffer (1%NP-40, 50 mM Tris-HCl, pH 8.0, 150 mM NaCl, 5 mM Ethylenediaminetetraacetic acid [EDTA], 1 mM PMSF) on ice. DNA was degraded by sonification (five pulses at 50 amplitudes). Protein concentration was determined, and equal amounts of protein were separated on a 9% SDS-PAGE gel. The proteins were transferred onto nitrocellulose membrane by a standard Western blotting protocol and the membranes were incubated with the following antibodies: ERα (Santa Cruz Biotechnology, sc-8002, RRID: AB_627558) and PCNA (Santa Cruz Biotechnology, sc-56, RRID: AB_628110), followed by incubation with HRP labeled Goat anti-mouse Immunoglobulins (DAKO, P0447, RRID: AB_2617137).

AHR-Hsp90-XAP2 = target: T2, AHR-Hsp90-XAP2 (Homo sapiens, UniProt P35869); assay: Thermal stability measurements (nano-DSF); format: binding; conditions: 2.5 μM protein, 12.5 μM compound
T2 construct: made in house
Protocol: Thermal denaturation experiments of AHR complexes in the presence of compounds were performed using a Tycho NT.6 instrument (NanoTemper Technologies). Protein samples were prepared as previously described[67] and subsequently diluted in the buffer containing 20 mM Bis-Tris–HCl pH 7.0, 50 mM NaCl, 10 mM KCl, 10 mM MgCl2, 20 mM Na2MoO4 and 2 mM β-mercaptoethanol to a final protein concentration of 2.5 μM. Compound stock solutions were prepared at 20 mM in DMSO and added to the protein samples to yield a final concentration of 12.5 μM. For control measurements, DMSO was added to a final concentration of 5% (v/v). Following ligand or DMSO addition, the samples were gently mixed and incubated at room temperature for 10 min to allow equilibration. Thermal denaturation profiles were acquired over a temperature range of 35°C–95°C, with a heating rate of 1 °C per min. Fluorescence was monitored at emission wavelengths of 330 nm and 350 nm, and the data were analyzed as the first derivative of the fluorescence ratio (F330/F350) as a function of temperature. All experiments were performed in triplicate, and data were analyzed using the Tycho NT.6 software (NanoTemper Technologies) according to the manufacturer’s recommendations.

ERα full-length = target: T3, ERα full-length (Homo sapiens, UniProt P03372); assay: PolarScreen ERα Competitor Assay (fluorescence polarization); format: binding
T3 construct: 34 nM ERα full-length and 1.4 nM Fluormone EL Red were incubated; purchased ThermoFisher A15884
T3 sequence (P03372 1-595): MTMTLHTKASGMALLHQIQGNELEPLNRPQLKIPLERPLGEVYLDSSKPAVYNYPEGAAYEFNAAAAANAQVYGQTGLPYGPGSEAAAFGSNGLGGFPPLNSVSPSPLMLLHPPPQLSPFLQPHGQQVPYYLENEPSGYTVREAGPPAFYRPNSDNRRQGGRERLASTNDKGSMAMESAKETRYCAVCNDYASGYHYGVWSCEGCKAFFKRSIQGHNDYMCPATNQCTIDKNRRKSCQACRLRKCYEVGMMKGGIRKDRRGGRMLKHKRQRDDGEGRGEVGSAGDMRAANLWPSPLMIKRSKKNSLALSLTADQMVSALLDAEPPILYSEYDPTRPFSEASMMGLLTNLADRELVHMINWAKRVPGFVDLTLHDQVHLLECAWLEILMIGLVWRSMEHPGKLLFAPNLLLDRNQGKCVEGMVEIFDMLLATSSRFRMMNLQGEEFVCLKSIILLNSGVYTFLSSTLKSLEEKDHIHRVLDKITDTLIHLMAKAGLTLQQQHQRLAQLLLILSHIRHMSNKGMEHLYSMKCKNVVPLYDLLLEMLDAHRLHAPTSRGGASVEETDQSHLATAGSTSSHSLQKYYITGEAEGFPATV
Protocol: The PolarScreen Estrogen Receptor-Alpha Competitor Assay, Red (ThermoFisher, A15884) was used to determine if the X compounds bind to ERα. The assay was performed according to the manufacturer’s protocol.

[3] = test system: AHR target genes CYP1A1, CYP1B1, ALDH3A1; conditions: human, 16 h, 1 µM
MCF-7 cells = assay: Clonogenic assay in MCF-7 cells with AHR antagonist CH223191; format: cell-based, human; conditions: MCF-7, 10 nM compound, 1 μM CH223191, 14 days
Protocol: Cells were seeded at a density of 1–2×10^3 cells/well in a 6-well plate and treated with increasing concentrations of the X compounds for 14–21 days. Medium and compounds were renewed every 7 days. The experiments were terminated by fixing the cells with methanol and the colonies formed were visualized after staining with 0.5% crystal violet (w/v) in 20% methanol (v/v). Plates were photographed and the area covered by the colonies was calculated using the ColonyArea Plugin for Fiji (RRID:SCR_003070).[20]

T2 sequence (P08238 whole entry partner, one chain of several): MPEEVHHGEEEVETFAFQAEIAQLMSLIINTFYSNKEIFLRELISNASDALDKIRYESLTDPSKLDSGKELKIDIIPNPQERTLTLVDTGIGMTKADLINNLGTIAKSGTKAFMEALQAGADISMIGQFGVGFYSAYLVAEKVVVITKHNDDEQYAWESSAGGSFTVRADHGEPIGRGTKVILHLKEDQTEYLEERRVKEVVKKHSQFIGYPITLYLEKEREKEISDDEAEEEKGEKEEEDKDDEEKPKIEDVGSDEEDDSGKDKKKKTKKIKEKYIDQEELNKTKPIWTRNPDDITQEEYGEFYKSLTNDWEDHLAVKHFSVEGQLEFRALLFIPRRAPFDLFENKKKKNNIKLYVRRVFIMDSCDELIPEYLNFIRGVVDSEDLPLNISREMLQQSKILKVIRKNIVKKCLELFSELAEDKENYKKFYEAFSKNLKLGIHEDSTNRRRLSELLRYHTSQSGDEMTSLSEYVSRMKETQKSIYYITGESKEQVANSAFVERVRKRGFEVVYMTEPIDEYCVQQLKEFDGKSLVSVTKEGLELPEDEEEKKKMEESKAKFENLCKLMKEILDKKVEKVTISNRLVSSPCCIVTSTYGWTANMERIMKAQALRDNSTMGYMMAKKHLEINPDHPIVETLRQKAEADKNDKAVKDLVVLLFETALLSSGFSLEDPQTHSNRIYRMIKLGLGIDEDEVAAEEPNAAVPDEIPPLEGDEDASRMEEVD
T2 sequence (O00170 whole entry partner, one chain of several): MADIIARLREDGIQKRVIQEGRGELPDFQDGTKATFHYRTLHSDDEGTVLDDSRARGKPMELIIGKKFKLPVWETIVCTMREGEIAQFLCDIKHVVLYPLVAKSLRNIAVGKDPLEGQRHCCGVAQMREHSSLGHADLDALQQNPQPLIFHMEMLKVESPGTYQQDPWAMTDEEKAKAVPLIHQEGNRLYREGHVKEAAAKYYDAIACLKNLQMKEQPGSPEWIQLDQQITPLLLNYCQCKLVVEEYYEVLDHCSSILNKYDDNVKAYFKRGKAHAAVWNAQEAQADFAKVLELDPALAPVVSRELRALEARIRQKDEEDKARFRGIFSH

For `Cn1c(=O)c2c(ncn2C)n(C)c1=O` [Caffeine], the Papp at 5 h, 200 µM ([1]; PAMPA) was 10.7 ×10⁻⁶ cm/s, the Conc. acceptor well ([1]; replica 1) was 43.91 µM and the Conc. donor well ([1]; replica 1) was 160.76 µM. For the same molecule, the Conc. acceptor well ([1]; replica 2) was 41.44 µM, the Conc. donor well ([1]; replica 2) was 161.45 µM and the Conc. acceptor well ([1]; replica 3) was 46.38 µM. For the same molecule, the Conc. donor well ([1]; replica 3) was 165.23 µM.
`Clc1cc2c(cc1Cl)Oc1cc(Cl)c(Cl)cc1O2` [Dioxin, reference compound] gave an EC50 (AHR) of 1.24 nM.
Work on `O=C1NC(=O)C(c2ccccc2)(c2ccccc2)N1` [Phenytoin] yielded a Conc. acceptor well ([1]; replica 1) of 7.15 µM, a Conc. donor well ([1]; replica 1) of 112.02 µM and a Conc. acceptor well ([1]; replica 2) of 10.14 µM. It also gave a Conc. donor well ([1]; replica 2) of 117.35 µM, a Conc. acceptor well ([1]; replica 3) of 14.06 µM and a Conc. donor well ([1]; replica 3) of 120.53 µM.
In the case of `Cc1cccn2cc(-c3ccc(F)cc3)nc12` [X19167], the “Inhibition of Proliferation” value [2] is given as “No”, the “ERα destabilization (immunoblot)” value (ERα in MCF-7 cells) is given as “no significant ERα destabilization” and the EC50 (AHR) is given as 173 nM. For the same molecule, the “thermal stabilization of AHR (nano-DSF)” value (AHR-Hsp90-XAP2) was “promote AHR destabilization” and the “displacement of the Fluormone tracer from ERα” value (“displacement” for short) (ERα full-length) was “failed to displace the Fluormone”.
For `Fc1ccccc1-c1cn2ccccc2n1` [X19712], the “Inhibition of Proliferation” value [2] is given as “No”, the “ERα destabilization (immunoblot)” value (ERα in MCF-7 cells) is given as “no significant ERα destabilization” and the “thermal stabilization of AHR (nano-DSF)” value (AHR-Hsp90-XAP2) is given as “promote AHR destabilization”. The “displacement” value (ERα full-length) was “failed to displace the Fluormone”.
In the case of `Cc1cccn2cc(-c3ccccc3F)nc12` [X19718], the “Inhibition of Proliferation” value [2] is given as “No”, the “ERα destabilization (immunoblot)” value (ERα in MCF-7 cells) is given as “no significant ERα destabilization” and the “thermal stabilization of AHR (nano-DSF)” value (AHR-Hsp90-XAP2) is given as “promote AHR destabilization”. For the same molecule, the “displacement” value (ERα full-length) was “failed to displace the Fluormone”.
In the case of `Fc1ccc(-c2cn3cc(C(F)(F)F)ccc3n2)cc1` [X20046], the “Inhibition of Proliferation” value [2] is listed as “Yes”, the “expression of AHR target genes (RT-PCR)” value [3] is listed as “enhanced the transcriptional activity of the AHR target genes in both MCF-7 and T47D cells” and the “ERα destabilization (immunoblot)” value (ERα in MCF-7 cells) is listed as “most proficient in destabilizing ERα”. The “inhibition of colony expansion in the presence of AHR antagonist CH223191” value (MCF-7 cells) was “clearly abrogated by the AHR antagonist CH223191”.
